{"source": "patent US4808586A", "about": "“Substituted benzimidazoles and benzothidiazoles having anti-asthmatic and/or anti-inflammatory activities” (American Cyanamid Company, priority 1987, dated 1989)", "key": {"[1]": {"system": "Immunologically Stimulated Human Basophils", "assay": "Inhibition of histamine release from immunologically stimulated human basophils", "type": "cell-based", "details": "1 h; human basophils challenged with anti-IgE or antigen, 60 minutes at 37° C.; linear regression; active if ED50 ≤48 μM; read-out: ED50 (concentration which causes a 50% inhibition of histamine release)", "procedure": "The novel compounds of this invention have been tested by the procedure of Lichtenstein, L. M. and Osler, A. G., J. Exp. Med., 120, 507-530 (1964), which evaluates the ability of compounds to inhibit mediator (histamine) release from immunologically stimulated human basophils.\nDissolve 140.3 g of sodium chloride, 7.45 g of potassium chloride and 74.5 g of Trizma-Tris Pre-Set, Reagent Grade, pH 7.6, at 25° C. (Sigma Chemical Co.) in sufficient water to give a final volume of 2 liters.\n(Sigma Chemical Co.) (30 mg/ml)\nMade to 0.75M and 0.5M respectively, with calcium chloride dihydrate and magnesium chloride hexahydrate.\nA 10 ml portion of 10X Tris Buffer and 1.0 ml of human albumin are diluted to 100 ml with water.\nA 10 ml portion of 10X Tris Buffer, 1.0 ml of human albumin, 0.8 ml of calcium stock and 0.2 ml of magnesium stock are diluted to 100 ml with water.\nBehring Diagnostics (Generally used at 10 μg protein/ml final concentration).\nStrength 1:100 (w:v) allergenic extract, Hollister-Stier Labs. Generally this is diluted 1:1000 to 1:10,000 (considering the vial as stock).\nIntradermal solutions or intramuscular preparations for hyposensitization, Hollister-Stier Labs. The final concentration used is on the order of 1 PNU/ml.\nEighty milliliters of blood is withdrawn from subjects with known histamine release to anti-Ige, rageweed antigen or other specific alergen, using four 20 ml heparainized tubes. This 80 ml of blood is mixed with 20 ml of saline containing 0.6 g of dextrose and 1.2 g of dextran. The blood is allowed to sediment at room temperature in two 50 ml polycarbonate centrifuge tubes until a sharp interface develops between the red cells and plasma (60-90 minutes). The plasma (top) layer from each tube is with-drawn by pipet and transferred to respective 50 ml polycarbonate tubes. The plasma is centrifuged for 8 minutes at 100×G at […]. The supernatant is carefully poured off as completely as possible and the cell button is resuspended in 2-3 ml of Tris-A buffer using a silconized Pasteur pipet. The resuspension is accomplished by drawing the liquid gently in an out of the pipet, with the tip below the liquid, until and even suspension of cells is obtained. Sufficient Tris-A buffer is then added to bring the volume in the tube to about 45 ml and the tube is centrifuged at 110×G for 8 minutes at 4° C. The supernatant is poured off and the cell button is resuspended and centrifuged as described above. The supernatant is poured off and the cell button suspended in 2-3 ml of Tris-ACM buffer to make the final volume sufficient to allow addition to the reaction tubes.\nReaction tubes containing anti-IgE or antigens, either alone or with test compound in a total volume of 0.2 ml are prepared and placed in a 37° C. bath. […]"}, "Neutrophil Lipoxygenase": {"target": "T1, Neutrophil Lipoxygenase (Cavia porcellus, UniProt A0A286X958)", "T1 construct": "endogenous in cells; host or cells: guinea pig peritoneal neutrophils", "T1 sequence (A0A286X958 1-674)": "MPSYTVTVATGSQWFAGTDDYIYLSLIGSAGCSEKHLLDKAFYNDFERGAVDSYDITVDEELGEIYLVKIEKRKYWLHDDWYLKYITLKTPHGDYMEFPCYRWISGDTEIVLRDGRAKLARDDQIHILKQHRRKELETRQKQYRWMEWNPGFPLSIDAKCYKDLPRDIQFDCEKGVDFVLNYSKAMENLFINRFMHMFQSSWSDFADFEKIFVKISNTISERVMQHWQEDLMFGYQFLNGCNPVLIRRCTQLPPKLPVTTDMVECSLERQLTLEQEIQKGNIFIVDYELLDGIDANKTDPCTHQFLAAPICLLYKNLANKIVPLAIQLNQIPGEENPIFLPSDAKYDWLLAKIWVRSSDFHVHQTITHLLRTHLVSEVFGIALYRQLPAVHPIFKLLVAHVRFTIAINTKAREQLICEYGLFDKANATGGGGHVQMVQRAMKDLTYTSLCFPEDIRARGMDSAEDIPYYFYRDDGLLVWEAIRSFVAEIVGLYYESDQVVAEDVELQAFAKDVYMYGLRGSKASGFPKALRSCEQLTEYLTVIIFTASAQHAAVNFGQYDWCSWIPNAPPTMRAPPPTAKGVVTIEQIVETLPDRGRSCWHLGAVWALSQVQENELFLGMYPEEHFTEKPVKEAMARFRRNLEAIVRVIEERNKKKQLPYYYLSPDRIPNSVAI", "assay": "Inhibition of neutrophil lipoxygenase (release and biosynthesis of LTB4 and 5-HETE) in guinea pig peritoneal neutrophils", "type": "cell-based", "details": "10 μg/ml, 100 μM arachidonic acid and 20 μM A23187, the lower the percentage, the more active", "procedure": "The ability of these compounds to inhibit lipoxygenase activity in terms of the suppression of the release and biosynthesis of leukotriene B4 (LTB4) and 5-hydroxyeicosatetraenoic acid (5-HETE) was measured as follows.\nIn this assay 3×10^7 peritoneal neutrophils derived from guinea pigs were incubated at 37° C. in Dulbeccos buffer containing 50 mM tris buffer (pH 7.4). Five minutes before the addition of 100 μM arachidonic acid and 20 μM calcium ionophore (A23187), control vehicle or the test compounds were added to the neutrophils at a concentration of 10 μg/ml.\nThree minutes after the addition of arachidonic acid and calcium ionophore the total lipid was partitioned into chloroform after adjusting the pH to 3 with citric acid and the addition of equal parts of methanol and chloro-form.\nThe 5-HETE and LTB4 were resolved by HPLC using a 5 μM, 4×25 cm octadecyl silica solumn (IBM Instruments) with 70-80% methanol in water adjusted to pH 3.0 with acetic acid. As the mobile phase was pumped at 1.0 ml/minute, LTB4 and 5-HETE were detected by absorbance at 270 and 236 nm, respectively.\nLTB4 and 5-HETE were quantitated by comparison with the control and results were expressed as a percent of control."}}, "note": "Like-named read-outs stand apart in the source and are kept apart here.", "data": [{"smiles": "Oc1ccc(O)c2[nH]c(-c3ccc(Cl)cc3)nc12", "note": "[2-(4-Chlorophenyl)-1H-benzimidazole-4,7-diol]", "values": [{"measurement": "IC50", "setting": "[1]", "result": 9.7, "unit": "µM"}]}, {"smiles": "O=C1C=CC(=O)c2[nH]c(-c3ccc(Cl)cc3)nc21", "note": "[2-(4-Chlorophenyl)-1H-benzimidazole-4,7-dione]", "values": [{"measurement": "IC50", "setting": "[1]", "result": 6.8, "unit": "µM"}]}, {"smiles": "COc1ccc(OC)c2[nH]c(-c3ccc(Cl)cc3)nc12", "note": "[2-(4-Chlorophenyl)-4,7-dimethoxy-1H-benzimidazole]", "values": [{"measurement": "remaining activity at 10 µg/mL", "setting": "Neutrophil Lipoxygenase; read-out: 5-HETE, % of Control", "result": 77, "unit": "%"}, {"measurement": "remaining activity at 10 µg/mL", "setting": "Neutrophil Lipoxygenase; read-out: LTB4, % of Control", "result": 87, "unit": "%"}]}, {"smiles": "Oc1ccc(O)c2[nH]c(-c3ccccc3)nc12", "note": "[2-Phenyl-1 --H--benzimidazole-4,7-diol, 2-Phenyl-1H-benzimidazole-4,7-diol]", "values": [{"measurement": "remaining activity at 10 µg/mL", "setting": "Neutrophil Lipoxygenase; read-out: 5-HETE, % of Control", "result": 32.1, "unit": "%"}, {"measurement": "remaining activity at 10 µg/mL", "setting": "Neutrophil Lipoxygenase; read-out: LTB4, % of Control", "result": 33.9, "unit": "%"}]}, {"smiles": "COc1ccc(OC)c2[nH]c(-c3ccccc3)nc12", "note": "[4,7-Dimethoxy-2-phenyl-1H-benzimidazole]", "values": [{"measurement": "remaining activity at 10 µg/mL", "setting": "Neutrophil Lipoxygenase; read-out: 5-HETE, % of Control", "result": 78.2, "unit": "%"}, {"measurement": "remaining activity at 10 µg/mL", "setting": "Neutrophil Lipoxygenase; read-out: LTB4, % of Control", "result": 8, "unit": "%"}]}, {"smiles": "O=CN1CCN(C2=C(Cl)C(=O)c3nsnc3C2=O)CC1", "note": "[4-(6-Chloro-4,7-dihydro-4,7-dioxo-2,1,3-benzothiadiazol-5-yl)-1-piperazinecarboxaldehyde]", "values": [{"measurement": "remaining activity at 10 µg/mL", "setting": "Neutrophil Lipoxygenase; read-out: 5-HETE, % of Control", "result": 64, "unit": "%"}, {"measurement": "remaining activity at 10 µg/mL", "setting": "Neutrophil Lipoxygenase; read-out: LTB4, % of Control", "result": 90.8, "unit": "%"}]}, {"smiles": "CCOC(=O)N1CCN(C2=C(Cl)C(=O)c3nsnc3C2=O)CC1", "note": "[4-(6-Chloro-4,7-dihydro-4,7-dioxo-2,1,3-benzothiadiazol-5-yl)-1-piperazinecarboxylic acid, ethyl ester]", "values": [{"measurement": "IC50", "setting": "[1]", "result": 1, "unit": "µM"}, {"measurement": "remaining activity at 10 µg/mL", "setting": "Neutrophil Lipoxygenase; read-out: 5-HETE, % of Control", "result": 40.5, "unit": "%"}, {"measurement": "remaining activity at 10 µg/mL", "setting": "Neutrophil Lipoxygenase; read-out: LTB4, % of Control", "result": 39.3, "unit": "%"}]}, {"smiles": "O=C1C(Cl)=C(N2CCN(c3cccc(C(F)(F)F)c3)CC2)C(=O)c2nsnc21", "note": "[5-Chloro-6-6[4-[3-(trifluoromethyl)phenyl]-1-piperazinyl]-2,1,3-benzothiadiazole-4,7-dione]", "values": [{"measurement": "IC50", "setting": "[1]", "result": 9.1, "unit": "µM"}, {"measurement": "remaining activity at 10 µg/mL", "setting": "Neutrophil Lipoxygenase; read-out: 5-HETE, % of Control", "result": 15.2, "unit": "%"}, {"measurement": "remaining activity at 10 µg/mL", "setting": "Neutrophil Lipoxygenase; read-out: LTB4, % of Control", "result": 14.6, "unit": "%"}]}, {"smiles": "O=C1C(Cl)=C(N2CCN(c3nc4ccccc4o3)CC2)C(=O)c2nsnc21", "note": "[5-[4-(2-Benzoxazolyl)-1-piperazinyl]-6-chloro-2,1,3-benzothiadiazole-4,7-dione]", "values": [{"measurement": "remaining activity at 10 µg/mL", "setting": "Neutrophil Lipoxygenase; read-out: 5-HETE, % of Control", "result": 20.8, "unit": "%"}, {"measurement": "remaining activity at 10 µg/mL", "setting": "Neutrophil Lipoxygenase; read-out: LTB4, % of Control", "result": 25.8, "unit": "%"}]}]}
